# Results: patent US20080098491A1, “MOUSE MODELS TO STUDY CACHEXIA” (ZOLTAN LABORATORIES LLC, priority 2006, published 2008)
# Legend:
# MXT mouse mammary tumor [1] = test: Cisplatin-treated MXT mouse mammary tumor model, CCDTHT (Example 10); type: in vivo; conditions: with cisplatin 3-mg/kg i.p.
# From the text: (§1) The B16 mouse melanoma and MXT mouse mammary tumors were developed in first generation hybrid BDF1 (C57 B1 female×DBA/2 male) adult female mice kept at specified pathogen free (SPF) hygienic level. These models were chosen for these experiments because these mice have the complete immune system, and both tumors grow very rapidly. To develop the tumors, B16 and MXT tumor tissue fragments of about 0.1-cm^3 were surgically implanted subcutaneously into the intrascapular region to develop the tumors. Each tumor fragment contained about 1-1.5×10^6 cells. The animals were kept in macrolon cages on ventilated rack at 22-24° C. (50-60% humidity) with lighting regimen of 12/12 h light/dark. The animals had free access to tap water and were fed with sterilized standard diet (Charles River VRF1, Germany) ad libitum. The animals were taken care of according to the “Guiding Principle for the care and use of Animals” based upon the Helsinki declaration and they were approved by the local ethical committee.
# (§2) In case of both tumor models the tumor size was usually in the range of 0.2 to 0.5-g when treatments started 7-11 days after tumor implantation; the mice were selected so that in the same treatment group the difference in tumor size was no greater than 0.1 gram. In some experiments, the test proteins were suspended in physiological saline and injected in 50-μl volume subcutaneously in the vicinity of tumor (within 1-cm of tumor margin). In other experiments, the test proteins were dispersed in Vaselinum cholesteratum and used topically; 150-mg cream was applied on the tumor and the vicinity of tumor area (with about 0.5-cm of the tumor margin). The tumor volume was determined by using calipers; this technique is well known to one having ordinary skill in the art. Tumor volume was calculated according to the generally accepted formula: V=a^2×b×7r/6, where “a” and “b” mean the shortest and longest diameter, respectively, of the measured tumor.
# The mouse MXT mammary tumor was developed as described in Example 3. In the first group, animals remained untreated during the whole observation period. In the second group, starting on the 7th day after tumor implantation, mice were administered 3-mg per 1-kg of cisplatin i.p. 9-times every second day. In the third group, starting on the 7th day after tumor implantation, mice were simultaneously administered 3-mg per 1-kg of cisplatin i.p. and 4.6-mg per 1-kg of CCDTHT s.c. In the fourth group, starting on the 7th day after tumor implantation, mice were simultaneously administered 3-mg per 1-kg of cisplatin i.p. as well as 4.6-mg per 1-kg of CCDTHT s.c. and 14-mg per 1-kg of highly purified PALP s.c. Each treatment was performed 9-times on every second day. Each group included 7 animals. The mean values for total weight, tumor weight and body weight (the difference between total and tumor weight) are shown in TABLE 8.
# B16 mouse melanoma [2] = test: B16 mouse melanoma model, s.c. CCDTHT (Example 8); type: in vivo; conditions: for Body weight (total weight minus tumor weight) / Total weight / Tumor weight: CCDTHT 4.5-mg/kg s.c. daily from day 11 until day 22
# From the text: as §1, §2
# In this model, CCDTHT, a chemically synthesized compound is used to prevent or reverse tumor-induced body weight loss. The B16 mouse tumors were developed as described in Example 3. Two experimental groups each involving five mice were used. In the first group, mice remained untreated during the entire observation period. In the second group, starting on the 11th day after tumor implantation, mice were s.c. administered 4.5-mg/kg CCDTHT; then the treatments were repeated daily until day 22. The mean values for total weight, tumor weight and body weight (the difference between total and tumor weight) are shown in TABLE 5.
# MXT mouse mammary tumor [3] = test: Cisplatin-treated MXT mouse mammary tumor model, purified PALP, AT, holo-TF, apo-TF (Example 9, Experiment 2); type: in vivo; conditions: 12-mg/kg s.c. with cisplatin 3-mg/kg i.p.
# From the text: as §1, §2
# Experiment 2. The commercial PALP used in this model for Exp. 1 was composed of PALP (˜10%), TF (˜12%), AT (˜30%), albumin (˜35%) and the degradation products of TF (˜13%). […] In this experiment, it was determined whether the other two major proteins, i.e. TF and AT, present in the commercial PALP preparation in addition to PALP, also influence cisplatin-induced loss of body weight or not. The mouse MXT mammary tumor was developed as described in Example 3. In the first group, animals remained untreated during the whole observation period. In the second group, starting on the 7th day after tumor implantation, mice were administered 3-mg per 1-kg of cisplatin i.p. 6-times every second day. In the third group, starting on the 7th day after tumor implantation, mice were simultaneously administered 3-mg per 1-kg of cisplatin i.p. and 12-mg per 1-kg of purified PALP s.c. In the fourth group, starting on the 7th day after tumor implantation, mice were simultaneously administered 3-mg per 1-kg of cisplatin i.p. and 12-mg per 1-kg of highly purified AT s.c. In the fifth group, starting on the 7th day after tumor implantation, mice were simultaneously administered 3-mg per 1-kg of cisplatin i.p. and 12-mg per 1-kg of commercial holo-TF (h-TF, T 0665 in the Sigma catalog) s.c. In the sixth group, starting on the 7th day after tumor implantation, mice were simultaneously administered 3-mg per 1-kg of cisplatin i.p. and 12-mg per 1-kg of commercial apo-TF (a-TF, T 2036 in the Sigma catalog) s.c. Holo-TF contained 1,100-1,600 μg iron per gram protein while apo-TF was essentially iron-free. Each treatment with the proteins was also performed 6-times on every second day simultaneously with the cisplatin treatment. Each group included 7 animals. The mean values for total weight, tumor weight and body weight (the difference between total and tumor weight) are shown in gram in TABLE 7.
# fibroblast proliferation [4] = conditions: in vitro; cited from earlier work
# MXT mouse mammary tumor [5] = test: Cisplatin-treated MXT mouse mammary tumor model, PALP and TF (Example 9, Experiment 1); type: in vivo; conditions: co-treated with cisplatin 3-mg/kg i.p.
# From the text: as §1, §2
# Experiment 1. The mouse MXT mammary tumor was developed as described in Example 3. In the first group, animals remained untreated during the whole observation period. In the second group, starting on the 7th day after tumor implantation, mice were intraperitoneally (i.p.) administered 3-mg per 1-kg total weight of cisplatin 7-times every second day. In the third group, starting on the 7th day after tumor implantation, mice were simultaneously administered 3-mg per 1-kg of cisplatin i.p. and 16-mg per 1-kg of purified PALP s.c. In the fourth group, starting on the 7th day after tumor implantation, mice were simultaneously administered 3-mg per 1-kg of cisplatin i.p. and 60-mg per 1-kg of commercial PALP s.c. In the fifth group, starting on the 7th day after tumor implantation, mice were simultaneously administered 3-mg per 1-kg of cisplatin i.p. and 14-mg per 1-kg of commercial TF (T 3309 in the Sigma catalog) s.c. Each treatment was performed 7-times on every second day. Each group included 7 animals. The mean values for total weight, tumor weight and body weight (the difference between total and tumor weight) are shown in TABLE 6.
# B16 mouse melanoma [6] = test: B16 mouse melanoma model, s.c. commercial PALP, s.c. plus topical PALP, or TF (Example 4, Experiment 2); type: in vivo; conditions: TF 16-mg/kg s.c.; for Body weight (total weight minus tumor weight) / Total weight / Tumor weight: days 11-18 daily: commercial PALP 60-mg/kg s.c., topical cream 4-mg commercial PALP/g
# From the text: as §1, §2
# In this model, either highly purified PALP or commercial PALP was subcutaneously injected to reverse body weight loss in the rapidly growing B16 melanoma model. Two separate experiments were performed to validate the effects of highly purified PALP (Experiment 1) and commercial PALP (Experiment 2). For both experiments, the B16 mouse melanoma model was developed as described in Example 3. The data presented in TABLE 1 (for Experiment 1) and TABLE 2 (for Experiment 2) show the changes in total weight, tumor weight, and body weight (total weight minus tumor weight). In each experimental group all mice survived until the conclusion of the experiment.
# Experiment 2. In this experiment, the first group of animals remained untreated for the entire observation period. In the second group, from day 11 through day 18 after implantation of tumor pieces, the animals were treated daily with 60-mg/kg of commercial PALP via s.c. administration (seven treatments). In the third group, from day 11 through day 18 after implantation of tumor pieces, the animals were simultaneously administered 60-mg/kg of commercial PALP via s.c injection and treated topically with 150-mg of cream containing 4-mg commercial PALP in 1-g of Vaselinum cholesteratum (seven treatments). Topical treatment involved spreading the cream on both the tumor and surrounding skin area. In the fourth group, from day 11 through day 18 after implantation of tumor pieces, the animals were treated with 16-mg/kg of commercial partially iron-saturated TF via subcutaneous administration (seven treatments). Each group included seven mice.
# fibroblast proliferation [7] = test: Fibroblast proliferation in vitro, effect of pre-heating the protein; type: cell-based
# Procedure: It is reasonable to expect that pre-heating of PALP at 65-75° C. prior to its use may also enhance its anti-cachectic effect. Thus, a step of heat-activation of both commercial and highly purified PALP preparation may be included prior to their applications.
# Thus, pre-heating of TF-containing compositions to enhance the effects of other components, such as PALP and AT will unlikely to alter the ability of TF to reduce tumor- and chemotherapy-induced body weight loss.
# Therefore, a step of heat-activation of AT may be included during the preparation of active compositions.
# [8] = day 11 after tumor transplantation
# [9] = day 14 after tumor transplantation
# [10] = day 16 after tumor transplantation
# [11] = day 18 after tumor transplantation
# [12] = day 21 after tumor transplantation
# [13] = day 23, CCDTHT 4.5-mg/kg s.c. daily
# [14] = day 23 after tumor transplantation
molecule,measurement,setting,value
"CC[N+](C)(CC)CCOCc1ccc2sc3ccccc3c(=O)c2c1.[I-] [CCDTHT, N,N-diethyl-N-methyl-2-[(9-oxo-9H-thioxanthen-2-yl)methoxy]-ethanaminium iodide]",Effect on cisplatin-induced body weight loss,MXT mouse mammary tumor [1],effectively prevents cisplatin-induced body weight loss
same,Effect on body weight,B16 mouse melanoma [2]; CCDTHT 4.5-mg/kg s.c. daily,modest weight gain
same,Body weight (total weight minus tumor weight),B16 mouse melanoma [2]; [8],22.4 g
same,Total weight,B16 mouse melanoma [2]; [8],23.0 g
same,Tumor weight,B16 mouse melanoma [2]; [8],0.6 g
same,Body weight (total weight minus tumor weight),B16 mouse melanoma [2]; [9],22.9 g
same,Total weight,B16 mouse melanoma [2]; [9],23.7 g
same,Tumor weight,B16 mouse melanoma [2]; [9],0.8 g
same,Body weight (total weight minus tumor weight),B16 mouse melanoma [2]; [10],23.2 g
same,Total weight,B16 mouse melanoma [2]; [10],24.2 g
same,Tumor weight,B16 mouse melanoma [2]; [10],1.0 g
same,Body weight (total weight minus tumor weight),B16 mouse melanoma [2]; [11],23.4 g
same,Total weight,B16 mouse melanoma [2]; [11],24.7 g
same,Tumor weight,B16 mouse melanoma [2]; [11],1.3 g
same,Body weight (total weight minus tumor weight),B16 mouse melanoma [2]; [12],23.6 g
same,Total weight,B16 mouse melanoma [2]; [12],25.4 g
same,Tumor weight,B16 mouse melanoma [2]; [12],1.8 g
same,Body weight difference to control mice,B16 mouse melanoma [2]; [13],about 10%
same,Body weight heavier than control mice,B16 mouse melanoma [2]; [13],2.6 grams
same,Body weight (total weight minus tumor weight),B16 mouse melanoma [2]; [14],23.8 g
same,Total weight,B16 mouse melanoma [2]; [14],25.9 g
same,Tumor weight,B16 mouse melanoma [2]; [14],2.1 g
"apo-TF: commercial apo-transferrin (Sigma T 2036), essentially iron-free",Effect on cisplatin-induced body weight loss,MXT mouse mammary tumor [3],partially reversed cisplatin-induced body weight loss
"holo-TF: commercial holo-transferrin (Sigma T 0665), 1,100-1,600 μg iron per gram protein",Effect on cisplatin-induced body weight loss,MXT mouse mammary tumor [3],partially reversed cisplatin-induced body weight loss
AT: human α1-antitrypsin purified to homogeneity from commercial PALP,Effect on cisplatin-induced body weight loss,MXT mouse mammary tumor [3],partially reversed cisplatin-induced body weight loss
same,Effect of pre-heating on the stimulatory effect on fibroblast proliferation,fibroblast proliferation [4],enhanced by pre-heating it at 65-75 °C for 30 min or at 41 °C for 21 hours
TF s.c.: commercial partially iron-saturated human transferrin (Sigma T 3309),Effect on body weight loss induced by the tumor and cisplatin,MXT mouse mammary tumor [5],partially reversed body weight loss
same,Effect on body weight loss,B16 mouse melanoma [6]; commercial PALP 60-mg/kg s.c.,stabilized body weights but did not promote weight gain
same,Body weight (total weight minus tumor weight),B16 mouse melanoma [6]; [8],22.4 gram
same,Total weight,B16 mouse melanoma [6]; [8],22.9 gram
same,Tumor weight,B16 mouse melanoma [6]; [8],0.5 gram
same,Body weight (total weight minus tumor weight),B16 mouse melanoma [6]; [9],23.5 gram
same,Total weight,B16 mouse melanoma [6]; [9],24.2 gram
same,Tumor weight,B16 mouse melanoma [6]; [9],0.7 gram
same,Body weight (total weight minus tumor weight),B16 mouse melanoma [6]; [10],23.5 gram
same,Total weight,B16 mouse melanoma [6]; [10],24.3 gram
same,Tumor weight,B16 mouse melanoma [6]; [10],0.8 gram
same,Body weight (total weight minus tumor weight),B16 mouse melanoma [6]; [11],23.6 gram
same,Total weight,B16 mouse melanoma [6]; [11],25.0 gram
same,Tumor weight,B16 mouse melanoma [6]; [11],1.4 gram
same,Body weight (total weight minus tumor weight),B16 mouse melanoma [6]; [12],23.9 gram
same,Total weight,B16 mouse melanoma [6]; [12],26.1 gram
same,Tumor weight,B16 mouse melanoma [6]; [12],2.2 gram
same,Body weight (total weight minus tumor weight),B16 mouse melanoma [6]; [14],23.9 gram
same,Total weight,B16 mouse melanoma [6]; [14],26.6 gram
same,Tumor weight,B16 mouse melanoma [6]; [14],2.7 gram
same,Effect of pre-heating on the stimulatory effects on fibroblast proliferation,fibroblast proliferation [7],not altered by pre-heating it at up to 75 °C for 30 min
